Experimental data from US20230059463A1, “3-(2-BROMO-4-ALKYNYL-6-ALKOXYPHENYL)-SUBSTITUTED 5-SPIROCYCLOHEXYL-3-PYRROLIN-2-ONES AND THEIR USE AS HERBICIDES” (Bayer Aktiengesellschaft, priority 2019, published 2023).

How the values were obtained:
Format in all cases: in vivo
Alopecurus myosuroides [1] = test: Post-emergence herbicidal effect; conditions: 80 g/ha, post-emergence at one-leaf stage, assessed visually after about 3 weeks; 100% = plants have died, 0% = like control plants
Protocol: (§1) Seeds of monocotyledonous and dicotyledonous weed and crop plants are laid out in sandy loam soil in wood-fiber pots, covered with soil and cultivated in a greenhouse under good growth conditions. 2 to 3 weeks after sowing, the test plants are treated at the one-leaf stage. The compounds of the invention, formulated in the form of wettable powders (WP) or as emulsion concentrates (EC), are then sprayed onto the green parts of the plants as aqueous suspension or emulsion at a water application rate equating to 600 to 800 l/ha with addition of 0.2% wetting agent. After the test plants have been left to stand in the greenhouse under optimal growth conditions for about 3 weeks, the action of the preparations is assessed visually in comparison to untreated controls (herbicidal action in per cent (%): 100% activity=the plants have died, 0% activity=like control plants).

Digitaria sanguinalis = test: Post-emergence herbicidal effect; conditions: 80 g/ha, post-emergence at one-leaf stage, assessed visually after about 3 weeks; 100% = plants have died, 0% = like control plants
Protocol: as §1

Echinochloa crus-galli [2] = test: Post-emergence herbicidal effect; conditions: 80 g/ha, post-emergence at one-leaf stage, assessed visually after about 3 weeks; 100% = plants have died, 0% = like control plants
Protocol: as §1

Hordeum murinum [3] = test: Post-emergence herbicidal effect; conditions: 80 g/ha, post-emergence at one-leaf stage, assessed visually after about 3 weeks; 100% = plants have died, 0% = like control plants
Protocol: as §1

Lolium rigidum [4] = test: Post-emergence herbicidal effect; conditions: 80 g/ha, post-emergence at one-leaf stage, assessed visually after about 3 weeks; 100% = plants have died, 0% = like control plants
Protocol: as §1

Setaria viridis [5] = test: Post-emergence herbicidal effect; conditions: 80 g/ha, post-emergence at one-leaf stage, assessed visually after about 3 weeks; 100% = plants have died, 0% = like control plants
Protocol: as §1

Alopecurus myosuroides [6] = test: Pre-emergence herbicidal effect; conditions: 80 g/ha, scored visually after 3 weeks, 100% = plants have died, 0% = like control plants
Excerpt: (§2) Seeds of monocotyledonous and dicotyledonous weed plants and crop plants are laid out in sandy loam soil in wood-fiber pots and covered with soil. The compounds of the invention, formulated in the form of wettable powders (WP) or as emulsion concentrates (EC), are then applied to the surface of the covering soil as aqueous suspension or emulsion at a water application rate equating to 600 to 800 L/ha with addition of 0.2% wetting agent.
(§3) After the treatment, the pots are placed in a greenhouse and kept under good growth conditions for the trial plants. The damage to the test plants is scored visually after a test period of 3 weeks by comparison with untreated controls (herbicidal activity in percent (%): 100% activity=the plants have died, 0% activity=like control plants).

Avena fatua = test: Pre-emergence herbicidal effect; conditions: 80 g/ha, scored visually after 3 weeks, 100% = plants have died, 0% = like control plants
Excerpt: as §2, §3

Echinochloa crus-galli [7] = test: Pre-emergence herbicidal effect; conditions: 80 g/ha, scored visually after 3 weeks, 100% = plants have died, 0% = like control plants
Excerpt: as §2, §3

Hordeum murinum [8] = test: Pre-emergence herbicidal effect; conditions: 80 g/ha, scored visually after 3 weeks, 100% = plants have died, 0% = like control plants
Excerpt: as §2, §3

Lolium rigidum [9] = test: Pre-emergence herbicidal effect; conditions: 80 g/ha, scored visually after 3 weeks, 100% = plants have died, 0% = like control plants
Excerpt: as §2, §3

Setaria viridis [10] = test: Pre-emergence herbicidal effect; conditions: 80 g/ha, scored visually after 3 weeks, 100% = plants have died, 0% = like control plants
Excerpt: as §2, §3

CC#Cc1cc(Br)c(C2=C(O)C3(CCCC(OCCOC)C3)NC2=O)c(OCC)c1 (centres unmarked) [Example 1.1.17]
Post-emergence action against ALOMY (herbicidal action in per cent) (Alopecurus myosuroides [1]): 100% | Post-emergence action against DIGSA (herbicidal action in per cent) (Digitaria sanguinalis): 100% | Post-emergence action against ECHCG (herbicidal action in per cent) (Echinochloa crus-galli [2]): 100% | Post-emergence action against HORMU (herbicidal action in per cent) (Hordeum murinum [3]): 100% | Post-emergence action against LOLRI (herbicidal action in per cent) (Lolium rigidum [4]): 100% | Post-emergence action against SETVI (herbicidal action in per cent) (Setaria viridis [5]): 100%

CC#Cc1cc(Br)c(C2=C([O-])C3(CCCC(OCCC)C3)NC2=O)c(OC)c1.[Na+] (centres unmarked) [Example 1.1.10]
Pre-emergence action against ALOMY (herbicidal activity in percent) (Alopecurus myosuroides [6]): 90% | Pre-emergence action against AVEFA (herbicidal activity in percent) (Avena fatua): 100% | Pre-emergence action against ECHCG (herbicidal activity in percent) (Echinochloa crus-galli [7]): 100% | Pre-emergence action against HORMU (herbicidal activity in percent) (Hordeum murinum [8]): 100% | Pre-emergence action against LOLRI (herbicidal activity in percent) (Lolium rigidum [9]): 100% | Pre-emergence action against SETVI (herbicidal activity in percent) (Setaria viridis [10]): 100% | Post-emergence action against ALOMY (herbicidal action in per cent) (Alopecurus myosuroides [1]): 90% | Post-emergence action against ECHCG (herbicidal action in per cent) (Echinochloa crus-galli [2]): 100% | Post-emergence action against HORMU (herbicidal action in per cent) (Hordeum murinum [3]): 100% | Post-emergence action against LOLRI (herbicidal action in per cent) (Lolium rigidum [4]): 90% | Post-emergence action against SETVI (herbicidal action in per cent) (Setaria viridis [5]): 90%

CC#Cc1cc(Br)c(C2=C(O)C3(CCCC(OCCC)C3)NC2=O)c(OC)c1 (centres unmarked) [Example 1.1.09, 3-[2-Bromo-6-methoxy-4-(prop-1-yn-1-yl)phenyl]-7-propoxy-1-azaspiro[4.5]decane-2,4-dione]
Pre-emergence action against ALOMY (herbicidal activity in percent) (Alopecurus myosuroides [6]): 100% | Pre-emergence action against AVEFA (herbicidal activity in percent) (Avena fatua): 100% | Pre-emergence action against ECHCG (herbicidal activity in percent) (Echinochloa crus-galli [7]): 100% | Pre-emergence action against HORMU (herbicidal activity in percent) (Hordeum murinum [8]): 100% | Pre-emergence action against LOLRI (herbicidal activity in percent) (Lolium rigidum [9]): 100% | Pre-emergence action against SETVI (herbicidal activity in percent) (Setaria viridis [10]): 100% | Post-emergence action against ALOMY (herbicidal action in per cent) (Alopecurus myosuroides [1]): 90% | Post-emergence action against ECHCG (herbicidal action in per cent) (Echinochloa crus-galli [2]): 90% | Post-emergence action against HORMU (herbicidal action in per cent) (Hordeum murinum [3]): 100% | Post-emergence action against LOLRI (herbicidal action in per cent) (Lolium rigidum [4]): 90% | Post-emergence action against SETVI (herbicidal action in per cent) (Setaria viridis [5]): 90%

CC#Cc1cc(Br)c(C2=C(OC(=O)OCC)C3(CCCC(OCCOC)C3)NC2=O)c(OC)c1 (centres unmarked) [Example 1.1.15]
Pre-emergence action against ALOMY (herbicidal activity in percent) (Alopecurus myosuroides [6]): 100% | Pre-emergence action against AVEFA (herbicidal activity in percent) (Avena fatua): 100% | Pre-emergence action against ECHCG (herbicidal activity in percent) (Echinochloa crus-galli [7]): 100% | Pre-emergence action against HORMU (herbicidal activity in percent) (Hordeum murinum [8]): 100% | Pre-emergence action against LOLRI (herbicidal activity in percent) (Lolium rigidum [9]): 100% | Pre-emergence action against SETVI (herbicidal activity in percent) (Setaria viridis [10]): 100% | Post-emergence action against ALOMY (herbicidal action in per cent) (Alopecurus myosuroides [1]): 100% | Post-emergence action against ECHCG (herbicidal action in per cent) (Echinochloa crus-galli [2]): 100% | Post-emergence action against HORMU (herbicidal action in per cent) (Hordeum murinum [3]): 100% | Post-emergence action against LOLRI (herbicidal action in per cent) (Lolium rigidum [4]): 100% | Post-emergence action against SETVI (herbicidal action in per cent) (Setaria viridis [5]): 100%

CC#Cc1cc(Br)c(C2=C([O-])C3(CCCC(OCCOC)C3)NC2=O)c(OCC)c1.[Na+] (centres unmarked) [Example 1.1.18]
Post-emergence action against ALOMY (herbicidal action in per cent) (Alopecurus myosuroides [1]): 100% | Post-emergence action against DIGSA (herbicidal action in per cent) (Digitaria sanguinalis): 100% | Post-emergence action against ECHCG (herbicidal action in per cent) (Echinochloa crus-galli [2]): 100% | Post-emergence action against HORMU (herbicidal action in per cent) (Hordeum murinum [3]): 100% | Post-emergence action against LOLRI (herbicidal action in per cent) (Lolium rigidum [4]): 100% | Post-emergence action against SETVI (herbicidal action in per cent) (Setaria viridis [5]): 100%

CC#Cc1cc(Br)c(C2=C(OC(=O)C(C)C)C3(CCCC(OCCOC)C3)NC2=O)c(OC)c1 (centres unmarked) [Example 1.1.16]
Pre-emergence action against ALOMY (herbicidal activity in percent) (Alopecurus myosuroides [6]): 100% | Pre-emergence action against AVEFA (herbicidal activity in percent) (Avena fatua): 100% | Pre-emergence action against ECHCG (herbicidal activity in percent) (Echinochloa crus-galli [7]): 100% | Pre-emergence action against HORMU (herbicidal activity in percent) (Hordeum murinum [8]): 100% | Pre-emergence action against LOLRI (herbicidal activity in percent) (Lolium rigidum [9]): 100% | Pre-emergence action against SETVI (herbicidal activity in percent) (Setaria viridis [10]): 100% | Post-emergence action against ALOMY (herbicidal action in per cent) (Alopecurus myosuroides [1]): 100% | Post-emergence action against ECHCG (herbicidal action in per cent) (Echinochloa crus-galli [2]): 100% | Post-emergence action against HORMU (herbicidal action in per cent) (Hordeum murinum [3]): 100% | Post-emergence action against LOLRI (herbicidal action in per cent) (Lolium rigidum [4]): 100% | Post-emergence action against SETVI (herbicidal action in per cent) (Setaria viridis [5]): 100%
